This passage reports anti-oxidative efficacy results from patent US20070092454A1, “Oral composition containing morin” (Colgate-Palmolive Company, priority 2005, published 2007).

This experiment in a line: LPO-CC Kamiya Bioscience kit anti-oxidant efficacy assay (methylene blue, optical density at 674 nm). It is filed as biochemical. The conditions noted are these: simple composition containing 1.0% by weight of active; compared with 1.0% vitamin E; FIG. 1; lower optical density at 674 nm = better efficacy.

From the text: Reaction processes in the kit used can be summarized as follows. Cumene hydroperoxide (CHO) is combined with an enzyme mixture of ascorbic oxidase and lipoprotein lipase in order to produce lipid peroxide. Samples and standards are then combined with a second reagent containing methyl carbamate (MCDP) and hemoglobin. In the presence of hemoglobin, lipid peroxides are converted to lipid alcohols which in turn convert the MCDP to methylene blue that can be read at 674 nm. This translates to decreased color intensity which is measured by spectroscopy at 674 nm. […] In other words, the lower the optical density reading the better the anti-oxidant efficacy.

Take `O=c1c(O)c(-c2ccc(O)cc2O)oc2cc(O)cc(O)c12` [morin, 2′,3,4′,5,7-pentahydroxyflavone]: the anti-oxidative efficacy entry is “anti-oxidative efficacy as good as positive control vitamin E”.
